Legend:
[1] = Lipophilicity, log D at pH 7.4; assay type: physicochemical; settings: buffer
[2] = Apparent permeability from basolateral to apical side of human Caco-2 cells; assay type: ADME, cell-based; settings: read-out: permeability
[3] = Apparent permeability from apical to basolateral side of human Caco-2 cells; assay type: ADME, cell-based; settings: read-out: permeability
[4] = (§1) Metabolic stability in human liver microsomes assessed as clearance measured per mg of protein; assay type: ADME, Microsome; settings: liver microsomes
[5] = Clearance in iv dosed Sprague-Dawley rat; assay type: ADME, organism-based; settings: in vivo
[6] = Half life in iv dosed Sprague-Dawley rat; assay type: ADME, organism-based; settings: in vivo
[7] = test system: Human immunodeficiency virus 1; test: Antiviral activity against HIV1 BAL assessed as inhibition of viral replication; assay type: functional; settings: Human immunodeficiency virus 1, BAL
[8] = Oral bioavailability in Sprague-Dawley rat; assay type: ADME, organism-based; settings: in vivo
[9] = Volume of distribution in iv dosed Sprague-Dawley rat; assay type: ADME, organism-based; settings: in vivo
Liver microsomes = test: as §1; assay type: ADME, Microsome; settings: microsomes

SMILES | logD ([1]; read-out: logD) | microsomal CLint [4] | also measured
Cc1nc(C(C)C)n([C@@H]2C[C@H]3CC[C@@H](C2)N3CC[C@H](NC(=O)C2CCC(F)(F)CC2)c2ccccc2)n1 | 2.7 | 6 µL/min/mg | Papp B→A [2]: 26 ×10⁻⁶ cm/s; Papp A→B [3]: 11 ×10⁻⁶ cm/s
Cc1nnc(C(C)C)n1C1CCN(C(C)C[C@H](NC(=O)CC(F)(F)F)c2ccccc2)CC1 (mixture of isomers) |  | 11.4 µL/min/mg | 
Cc1nnc(C(C)C)n1C1CCN(C(C)C[C@H](NC(=O)COCC(F)(F)F)c2ccccc2)CC1 (mixture of isomers) |  | 61.6 µL/min/mg | 
Cc1nnc(C(C)C)n1C1CCN(C(C)C[C@H](NC(=O)C(C)C)c2ccccc2)CC1 (mixture of isomers) |  | < 8 µL/min/mg | 
Cc1nnc(C(C)C)n1C1CCN(C(C)C[C@H](NC(=O)N2CCOCC2)c2ccccc2)CC1 (mixture of isomers) |  | < 8 µL/min/mg | 
CC(=O)N1CCC(C(=O)N[C@@H](CC(C)N2CCC(n3c(C)nnc3C(C)C)CC2)c2ccccc2)CC1 (mixture of isomers) |  | < 8 µL/min/mg | 
COC(=O)N[C@@H](CC(C)N1CCC(n2c(C)nnc2C(C)C)CC1)c1ccccc1 (mixture of isomers) | 1.5 | < 7 µL/min/mg | 
Cc1nnc(C(C)C)n1C1CCN(C(C)C[C@H](NC(=O)CC2CC2)c2ccccc2)CC1 (mixture of isomers) | 1.9 |  | 
Cc1nnc(C(C)C)n1C1CCN(C(C)C[C@H](NC(=O)C2CC(F)(F)C2)c2ccccc2)CC1 (mixture of isomers; form 1) |  |  | logD [1]: 2; CL (Liver microsomes): < 7 µL/min/mg
Cc1nnc(C(C)C)n1[C@@H]1C[C@H]2CC[C@@H](C1)N2CC[C@H](NC(=O)C1CCC(F)(F)CC1)c1ccccc1 [MARAVIROC] | 1.9 | 20 µL/min/mg | clearance [5]: 74 mL/min/kg; Papp B→A [2]: 10 ×10⁻⁶ cm/s; half-life [6]: 0.9 h; Papp A→B [3]: 1 ×10⁻⁶ cm/s; Vd [9]: 6.5 L/kg
Cc1nnc(C(C)C)n1[C@H]1C[C@H]2CC[C@@H](C1)N2CC[C@H](NC(=O)C1CCC(F)(F)CC1)c1ccccc1 [MARAVIROC] |  |  | IC90 [7]: 2.8 nM

More lines, main results first:

logD ([1]; read-out: logD) | microsomal CLint [4] | SMILES | also measured
2.2 | 12 µL/min/mg | Cc1nnc(C(C)C)n1C1CCN([C@H](C)C[C@H](NC(=O)C2CC(F)(F)C2)c2ccccc2)CC1 | clearance [5]: 92 mL/min/kg; half-life [6]: 1.3 h; IC90 [7]: 1.8 nM; bioavailability [8]: 6%; Vd [9]: 10 L/kg
2.2 | < 7 µL/min/mg | Cc1nnc(C(C)C)n1C1CCN([C@@H](C)C[C@H](NC(=O)C2CCC(F)(F)CC2)c2ccccc2)CC1 | 
 | < 8 µL/min/mg | Cc1nnc(C(C)C)n1C1CCN(C(C)C[C@H](NC(=O)C2CC2)c2ccccc2)CC1 (mixture of isomers) | 
 | < 8 µL/min/mg | CC(=O)N[C@@H](CC(C)N1CCC(n2c(C)nnc2C(C)C)CC1)c1ccccc1 (mixture of isomers) | 
2.5 | 139 µL/min/mg | Cc1nnc(C(C)C)n1C1CCN(C(C)C[C@H](NC(=O)C2CCCCC2)c2ccccc2)CC1 (mixture of isomers) | 
0.5 |  | Cc1nnc(C(C)C)n1C1CCN(C(C)C[C@H](NC(=O)C2CCS(=O)(=O)CC2)c2ccccc2)CC1 (mixture of isomers) | 
 | 10.8 µL/min/mg | Cc1nnc(C(C)C)n1C1CCN(C(C)C[C@H](NC(=O)C2CCOCC2)c2ccccc2)CC1 (mixture of isomers) | 
2 |  | Cc1nnc(C(C)C)n1C1CCN(C(C)C[C@H](NC(=O)C2CCC(F)(F)CC2)c2ccccc2)CC1 (mixture of isomers; form 1) | CL (Liver microsomes): 19 µL/min/mg
 | 16 µL/min/mg | Cc1nnc(C(C)C)n1C1CCN(C(C)C[C@H](NC(=O)C2CCC(F)(F)CC2)c2ccccc2)CC1.Cl (mixture of isomers; form 2) | logD [1]: 2
1.9 | < 7 µL/min/mg | Cc1nnc(C(C)C)n1C1CCN(C(C)C[C@H](NC(=O)C2CC(F)(F)C2)c2ccccc2)CC1 (mixture of isomers; form 2) | 

From ChEMBL document CHEMBL1152883, “1-Amido-1-phenyl-3-piperidinylbutanes--CCR5 antagonists for the treatment of HIV: part 2” (Bioorg Med Chem Lett, 2009)
